Source: patent US10308658B2, “Salt of EGFR inhibitor, crystalline form and uses thereof” (SUNSHINE LAKE PHARMA CO., LTD., priority 2015, dated 2019)

Tests used:
[1] = Pharmacokinetic assay in beagle dogs; type: in vivo; conditions: for AUC(0-inf) / AUC(0-t) / Cmax / Tmax / half-life: dog, in vivo, oral, capsule, 5 mg/kg as compound of Formula (II)
Method: The pharmacokinetic properties of the compound of Formula (II) and crystalline form I of the invention were assessed in beagle dogs: each group having 3 beagle dogs was administered by oral in a capsule form. The dosage amount of crystalline form I was converted and determined according to the compound of Formula (II) at a dosage of 5 mg/kg.

EGFR = EGFR (Homo sapiens, UniProt P00533); conditions: as disclosed in CN 103102344 A; cited from earlier work
[2] = Stability test (high temperature, high humidity, illumination); type: physicochemical
Method: (§1) The purity of the compound used in the stability test or accelerated test is measured by Aglient 1200 high performance liquid chromatography with VWD detector. The chromatographic column model is ZORBAX Extend-C18 (4.6×150 mm, […]), the detection wavelength is 250 nm, the flow rate is 1.0 mL/min, the column temperature is 40° C., and the mobile phase is 10 mM KH2PO4 (pH=7.5)-acetonitrile (v/v=55/45).
According to “Guidelines for the stability test of raw materials and preparations” (Chinese Pharmacopoeia, 2015, 4th edition, general rules 9001), the stability of crystalline form I was tested as follows:
Appropriate amount of sample was taken into the flat weighing bottle to form a thin layer of no more than 5 mm thick. […] The content of impurities was tested by HPLC.

[3] = Hygroscopic test (Chinese Pharmacopoeia 2010, appendix XIX J); type: physicochemical; conditions: 25° C.±1° C., relative humidity 80%±2%, 24 h; for Hygroscopic weight gain: dimethanesulfonate monohydrate
From the text: 1. Instruments: one hundred thousandth electronic balance, type: XP205DR, manufacturer: Mettler.
2. Test method deriving from Chinese Pharmacopoeia 2010, appendix XIX J: Guideline on pharmaceutical hygroscopic test. Specific method is described as follows:
1) Placing a dried glass-stoppered, weighing bottle (outer diameter: 50 mm, height: 15 mm) in a thermostatic drier with saturated aqueous ammonium chloride or ammonium sulfate solution in the bottom at the previous day of the test maintaining the temperature at 25° C.±1° C., and the glass-stoppered, weighing bottle was weighed precisely.
2) Taking and weighing an appropriate amount of the sample (m1), and placing the sample into the weighing bottle with thickness of about 1 mm.
3) Opening the weighing bottle, and placing the glass stopper with the opened weighing bottle in a constant temperature and humidity condition for 24 h.
4) Sealing the weighing bottle with glass stopper, and the weighing bottle sealed with glass stopper was weighed precisely (m2). The percentage (%) of weight gain was calculated. Percentage (%) of weight gain=(m2−m1−m0)/m1×100%
5) The hygroscopic features and definition of hygroscopic weight gain are summarized in table 3 (deriving from Chinese Pharmacopoeia 2010, appendix XIX J: Guideline on pharmaceutical hygroscopic test, test conditions: 25° C.±1° C., Relative Humidity 80%±2%).

[4] = Accelerated test (40±2° C./75%±5% RH, six months); type: physicochemical; conditions: for Impurities (total impurities, %) / Moisture (%): 40±2° C./75%±5% RH
Method: as §1
According to “Guidelines for the stability test of raw materials and preparations” (Chinese Pharmacopoeia, 2015, 4th edition, general rules 9001), the accelerated test of crystalline form I was practiced as follows:
Medicinal low density polyethylene bag (the size was 140*120*0.104 mm^3, the manufacture was Tianjin Litian Medicine Packing Material Co., Ltd, and the batch number was 121238.) was used as inner package material, and the bag was sealed by nylon cable ties; and paper tube was used as a packaging material. The packaged samples were placed in a constant temperature and humidity test chamber (40±2° C./75%±5% RH) for six months for accelerated test. Sampling at the end of 1, 2, 3 or 6 months for testing the moisture content of the sample by using karl fischer titration, the content of impurities was measured by HPLC.

[5] = oral capsule, individual data analysis

Chain of EGFR (P00533 25-1210, species assumed): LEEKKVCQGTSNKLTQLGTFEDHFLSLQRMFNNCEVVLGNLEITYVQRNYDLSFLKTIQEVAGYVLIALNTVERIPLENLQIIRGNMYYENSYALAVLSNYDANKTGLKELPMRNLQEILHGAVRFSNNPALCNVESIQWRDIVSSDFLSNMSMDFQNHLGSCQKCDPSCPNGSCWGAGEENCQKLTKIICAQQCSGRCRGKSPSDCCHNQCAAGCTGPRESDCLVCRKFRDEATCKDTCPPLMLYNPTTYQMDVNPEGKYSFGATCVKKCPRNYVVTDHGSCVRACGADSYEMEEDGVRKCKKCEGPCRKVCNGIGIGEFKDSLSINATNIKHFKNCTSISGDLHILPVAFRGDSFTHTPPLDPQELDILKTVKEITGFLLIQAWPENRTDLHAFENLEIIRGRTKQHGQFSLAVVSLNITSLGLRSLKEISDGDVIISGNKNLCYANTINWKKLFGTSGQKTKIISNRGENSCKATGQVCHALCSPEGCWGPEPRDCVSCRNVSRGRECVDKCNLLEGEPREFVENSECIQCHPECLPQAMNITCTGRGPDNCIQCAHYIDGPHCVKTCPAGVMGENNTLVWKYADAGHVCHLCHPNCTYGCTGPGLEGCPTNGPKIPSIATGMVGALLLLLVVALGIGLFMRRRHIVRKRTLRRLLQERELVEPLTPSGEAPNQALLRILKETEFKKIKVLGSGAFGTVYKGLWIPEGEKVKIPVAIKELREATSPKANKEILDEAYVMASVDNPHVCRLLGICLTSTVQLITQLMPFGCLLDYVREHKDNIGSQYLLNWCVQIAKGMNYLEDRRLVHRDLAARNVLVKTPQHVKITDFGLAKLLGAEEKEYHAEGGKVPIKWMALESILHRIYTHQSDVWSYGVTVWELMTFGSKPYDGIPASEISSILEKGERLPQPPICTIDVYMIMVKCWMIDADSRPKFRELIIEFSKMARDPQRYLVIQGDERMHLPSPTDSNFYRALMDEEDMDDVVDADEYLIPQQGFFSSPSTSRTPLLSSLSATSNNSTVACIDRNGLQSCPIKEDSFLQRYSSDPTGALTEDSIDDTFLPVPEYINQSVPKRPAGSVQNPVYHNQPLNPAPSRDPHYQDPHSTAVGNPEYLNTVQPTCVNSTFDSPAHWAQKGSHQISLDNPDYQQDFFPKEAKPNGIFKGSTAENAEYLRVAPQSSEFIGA

## COc1cc2ncnc(Nc3ccc(F)c(Cl)c3)c2cc1OCCCN1C[C@@H]2OCCO[C@@H]2C1 [Compound of Formula (II), 4-[(3-chloro-4-fluorophenyl)amino]-7-methoxy-6-[3-[(1R,6S)-2,5-dioxa-8-azabicyclo [4.3.0]nonan-8-yl]propoxy]quinazoline]
[1]
  AUC(0-inf): 886 ng·h/mL
  AUC(0-t): 825 ng·h/mL
  Cmax: 125 ng/mL
  Tmax: 1.67 h
  half-life: 3.62 h
EGFR
  inhibition activity against EGFR: high inhibition activity

## COc1cc2ncnc(Nc3ccc(F)c(Cl)c3)c2cc1OCCCN1C[C@@H]2OCCO[C@@H]2C1.CS(=O)(=O)O.CS(=O)(=O)O.O [Crystalline form I, 4-[(3-chloro-4-fluorophenyl)amino]-7-methoxy-6-[3-[(1R,6S)-2,5-dioxa-8-azabicyclo[4.3.0]nonan-8-yl]propoxy]quinazoline dimethanesulfonate monohydrate]
[2]; 0 day
  Impurities (total impurities, %): 0.13%
[2]; High humidity 25° C. ± 2° C./92.5% RH, 5 days
  Impurities (total impurities, %): 0.14%
[2]; High humidity 25° C. ± 2° C./92.5% RH, 10 days
  Impurities (total impurities, %): 0.16%
[2]; High temperature 60° C. ± 2° C., 5 days
  Impurities (total impurities, %): 0.12%
[2]; High temperature 60° C. ± 2° C., 10 days
  Impurities (total impurities, %): 0.14%
[2]; Illumination 4500 ± 500 lx, 5 days
  Impurities (total impurities, %): 0.13%
[2]; Illumination 4500 ± 500 lx, 10 days
  Impurities (total impurities, %): 0.13%
[2]; Illumination 4500 ± 500 lx, 15 days
  Impurities (total impurities, %): 0.14%
[2]; high temperature 10 days, high humidity 10 days, illumination 15 days
  change of impurity: no obvious change
[2]; high temperature, high humidity or illumination condition
  quality (stability): stable
[1]
  AUC(0-inf): 1470 ng·h/mL
  AUC(0-t): 1450 ng·h/mL
  Cmax: 231 ng/mL
  Tmax: 1.33 h
  half-life: 3.65 h
[1]; oral capsule
  Tmax time compared with compound of Formula (II): earlier than compound of Formula (II)
[1]; [5]
  absorption compared with compound of Formula (II): faster absorption
  exposure level compared with compound of Formula (II): higher exposure level
[3]
  Hygroscopic feature: almost no hygroscopicity
  Hygroscopic weight gain: 0.074%
[3]; listed as crystalline form I
  Hygroscopic weight gain: 0.074%
[4]; 0 day
  Impurities (total impurities, %): 0.18%
  Moisture (%): 2.79%
[4]; One month
  Impurities (total impurities, %): 0.18%
  Moisture (%): 2.92%
[4]; Six months
  Impurities (total impurities, %): 0.17%
  Moisture (%): 2.86%
[4]; Three months
  Impurities (total impurities, %): 0.18%
  Moisture (%): 3.09%
[4]; Two months
  Impurities (total impurities, %): 0.17%
  Moisture (%): 2.87%
[4]; accelerated test condition for six months, low density polyethylene bag as inner package
  quality (stability): stable
